Key:
[1] = cited from earlier work
HEK 293T cells = test: HEK293T cell proliferation assay ([3H]-thymidine incorporation); assay type: cell-based, human; conditions: Homo sapiens; anti-proliferative activity, HEK 293T cells, 24 h drug exposure; read-out: IC50 ± SEM
Source text: Cells and culture conditions. Primary astrocytes (Lonza, Walkersville, Md.; ABM™ Basal Media with AGM™ SingleQuots™ Supplement Pack), fibroblast (ATCC; Fibroblast Basal Medium (ATCC© PCS-201-030™) with Fibroblast Growth Kit-Serum-free (ATCC© PCS-201-040™)), airway epithelial cell (ATCC; Airway Epithelial Cell Basal Medium (ATCC© PCS-300-030™) with Bronchial Epithelial Cell Growth Kit (ATCC© PCS-300-040™)), renal proximal tubule (ATCC; Renal Epithelial Cell Basal Medium (ATCC© PCS-400-030™) with Renal Epithelial Cell Growth Kit (ATCC© PCS-400-040™)), prostate epithelial cell (Lonza; PrEGM™ BulletKit™) and mammary epithelial cell (Lonza; MEBM™ BulletKit™) were kept in a humidified incubator at 37° C. adjusted to 5% CO2. Prostate (PC3, LNCaP, DU-145), breast (MDA-MB-231, MDA-MB-453, SK-BR-3), head and neck (A253, Detroit 562, SCC-25), melanoma (SK-Mel-3, SK-Mel-1, RPMI-7951), pancreatic (CfPAC-1, BxPC3, SW1990), lung (A549, NCI-H1299, NCI-H1437) and liver (SNU-475, SK-HEP-1, SNU-387) cancer cell lines were obtained from ATCC and cultured in their respective media (prostate cells: RPMI-1640, MDA-MB-231: RPMI-1640, MDA-MB-453: Leibovitz's L-15, SK-BR-3: McCoy's 5a, A253: McCoy's 5a, Detroit 562: EMEM, SCC-25: DMEM, SK-Mel-3: McCoy's 5a, SK-Mel-1: EMEM, RPMI-7951: EMEM), CfPAC-1: IMDM, BxPC3: RPMI-1640, SW1990: Leibovitz's L-15), A549: F-12K, NCI-H1299: RPMI-1640, NCI-H1437: RPMI-1640, SNU-475: RPMI-1640, SK-HEP-1: EMEM, SNU-387: RPMI-1640. All media were supplemented with 10% (vol/vol) filtered fetal bovine serum (FBS, Invitrogen, Carlsbad, Calif.), 1% penicillin/streptomycin (Invitrogen) and maintained in a humidified incubator at 37° C. with 5% CO2 except for MDA-MB-453 and SW1990 grown at 37° C. without CO2 control. Wild type (ATCC) and C342T XPB knock-in cells (named T7115) of Human Embryonic Kidney 293T (HEK293T), HeLa (ATCC) were cultured in DMEM (GIBCO) with 10% (vol/vol) filtered fetal bovine serum (FBS, Invitrogen, Carlsbad, Calif.), 1% penicillin/streptomycin (Invitrogen).
(§1) Proliferation and viability assays. [^3H]-thymidine incorporation. HEK293T cells (10,000 cells/well) were seeded into 96-well plates then cultured in DMEM plus 10% FBS and 1% penicillin/streptomycin at 37° C. with 5% CO2 overnight. Drugs were added at indicated concentrations and incubation was continued for an additional 24 h. For hypoxia, PC3 (5,000 cells/well) were exposed to 1% O2 (Airgas) in a humidified hypoxia chamber (Billups-Rothenberg) in 37° C. for 48 h prior to drug exposure for 48 h. Treated cells were then pulsed using an aliquot of 1 μCi of [^3H]-thymidine (Perkin Elmer) per well for an additional 6 h. Radiolabelled cells were harvested onto a printed Filtermat A glass fiber filter (Perkin Elmer) using a Tomtec Harvester 96 Mach III M. Betaplate Scint (Perkin Elmer) scintillation fluid was added to radiolabelled filters followed by scintillation counting on Microbeta2 LumiJET Microplate Counter (Perkin Elmer).

HeLa cells = test: Apoptosis signaling in HeLa cells (nuclear fragmentation, cytochrome c, caspase 3, PARP1); assay type: cell-based, human; conditions: co-treatment with higher concentrations of SP
Protocol: (§2) Western blot analysis. Whole cell lysates were prepared by adding lysis buffer [4% SDS, 20% glycerol, 10% 2-mercaptoethanol, 0.004% bromophenol blue, 0.125 M Tris-HCl (pH 6.8)] to the cell pellets for 30 minutes in ice followed by centrifugation at 12,000×g for 10 minutes then boiling for 5 minutes. For isolation of cytosolic and mitochondrial fractions of cytochrome C, cell pellets were resuspended in CLAMI buffer (250 mM sucrose, 70 mM KCl, […] digitonin in 1×PBS, protease inhibitor cocktail (1 tablet/10 ml CLAMI buffer)) then incubated on ice for 5 minutes. After centrifugation at 12,000×g for 5 minutes at 4° C., supernatant (cytoplasmic fraction) was collected and the pellet resuspended in lysis buffer as described above. Proteins were then separated by SDS-PAGE and transferred to nitrocellulose membranes (Bio-Rad). After blocking at room temperature for 1 h, membranes were incubated at 4′C overnight with the primary antibodies including anti-Rpb1 (Santa Cruz Biotechnology), anti-XPB (Biotechne), anti-Actin (Developmental Studies Hybridoma Bank), anti-GAPDH (Santa Cruz Biotechnology), anti-cytochrome C (Santa Cruz Biotechnology), anti-PARP1 (Santa Cruz Biotechnology), anti-cleaved caspase 3 (Cell Signaling Technology), anti-VDAC (ProteinTech), anti-HIF-1[…] (BD sciences), and anti-GLUT1 (Santa Cruz Biotechnology) antibodies followed by incubation with horseradish peroxidase-conjugated anti-mouse or anti-rabbit IgG (GE Healthcare) at room temperature for 2 hours. Antibody-protein complexes were detected using enhanced chemiluminescence (ECL) immunoblotting detection reagent (EMD Millipore).
Immunocytochemistry and cytochemistry. HeLa or PC3 cells (2×10^5) were seeded on a MatTek glass bottom culture dish (Fisher Scientific, Pittsburgh, Pa., USA) and allowed to adhere for 24 h. Cells were then treated with either DMSO or drugs for 6 or 24 h then fixed with 4% paraformaldehyde, permeabilized using 1×PBS with 0.5% triton X 100 then probed for endogenous RNA Polymerase II catalytic subunit Rpb1 or HIF-1α using anti-RNAPII (Santa Cruz Biotechnology) and anti-HIF-1α (BD sciences) antibodies, respectively. Detection was then done using anti-mouse Alexa Fluor 488 (Invitrogen). For nuclear staining, fixed and permeabilized cells were incubated in DAPI (ThermoFisher) or Hoechst 33258 (Sigma) for 30 minutes prior to imaging. Glucose uptake was monitored by incubating cells in 200 μM 2-NBDG (ThermoFisher) for 6 hours prior to fixation. Fluorescence was observed under the Nikon Eclipse TE200 Inverted microscope (Nikon Instruments Inc., Melville, N.Y., USA). ImageJ software (NIH, Bethesda, Md., USA; http://imagej.nih.gov/ij/index.html) was used to measure intracellular protein levels in immuno-cytochemistry samples (Li et al. (2015) Toxicological Sciences: an Official Journal of the Society of Toxicology 143:196-208). Rpb1 levels were measured using the MEASURE feature of ImageJ where all the background signals were subtracted from the intergrated density of nuclear Rpb1.

XPB = biological target: T1, XPB (Homo sapiens, UniProt P19447); test: XPB degradation in cells, western blot; assay type: cell-based; conditions: 10 mM SP (so in the source)
T1 construct: spironolactone induces the degradation of endogenous XPB in cells; endogenous in cells
T1 sequence (P19447 whole entry): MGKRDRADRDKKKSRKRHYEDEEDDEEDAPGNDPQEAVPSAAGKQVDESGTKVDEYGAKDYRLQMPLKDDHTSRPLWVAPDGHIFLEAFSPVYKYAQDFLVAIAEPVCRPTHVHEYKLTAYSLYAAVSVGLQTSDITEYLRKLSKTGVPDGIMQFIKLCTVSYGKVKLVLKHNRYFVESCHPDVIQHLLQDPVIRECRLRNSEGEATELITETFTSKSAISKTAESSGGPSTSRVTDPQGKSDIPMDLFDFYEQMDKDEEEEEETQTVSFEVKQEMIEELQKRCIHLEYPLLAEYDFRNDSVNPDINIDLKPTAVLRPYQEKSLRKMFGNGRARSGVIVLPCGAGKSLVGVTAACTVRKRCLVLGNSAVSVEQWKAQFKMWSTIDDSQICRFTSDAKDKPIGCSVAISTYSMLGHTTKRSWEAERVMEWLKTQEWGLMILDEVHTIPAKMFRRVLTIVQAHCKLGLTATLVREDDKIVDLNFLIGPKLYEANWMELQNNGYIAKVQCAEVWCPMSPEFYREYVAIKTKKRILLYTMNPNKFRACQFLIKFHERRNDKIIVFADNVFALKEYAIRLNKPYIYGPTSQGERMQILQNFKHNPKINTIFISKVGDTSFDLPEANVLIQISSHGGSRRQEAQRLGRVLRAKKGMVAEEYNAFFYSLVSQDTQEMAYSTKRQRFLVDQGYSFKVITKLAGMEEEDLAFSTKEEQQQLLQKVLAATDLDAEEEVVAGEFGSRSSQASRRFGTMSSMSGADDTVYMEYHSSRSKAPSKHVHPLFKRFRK
Protocol: (§3) Western blot analysis. Whole cell lysates were prepared by adding lysis buffer [4% SDS, 20% glycerol, 10% 2-mercaptoethanol, 0.004% bromophenol blue, 0.125 M Tris-HCl (pH 6.8)] to the cell pellets for 30 minutes in ice followed by centrifugation at 12,000×g for 10 minutes then boiling for 5 minutes. For isolation of cytosolic and mitochondrial fractions of cytochrome C, cell pellets were resuspended in CLAMI buffer (250 mM sucrose, 70 mM KCl, […] digitonin in 1×PBS, protease inhibitor cocktail (1 tablet/10 ml CLAMI buffer)) then incubated on ice for 5 minutes. After centrifugation at 12,000×g for 5 minutes at 4° C., supernatant (cytoplasmic fraction) was collected and the pellet resuspended in lysis buffer as described above. Proteins were then separated by SDS-PAGE and transferred to nitrocellulose membranes (Bio-Rad). […] Antibody-protein complexes were detected using enhanced chemiluminescence (ECL) immunoblotting detection reagent (EMD Millipore).

[2] = tested on: RPB1 (catalytic subunit of RNAPII); test: RPB1 (RNAPII) degradation in HeLa cells, immunostaining and western blot; assay type: cell-based, human
Protocol: as §2
(§4) Immunocytochemistry and cytochemistry. […] Glucose uptake was monitored by incubating cells in 200 μM 2-NBDG (ThermoFisher) for 6 hours prior to fixation. Fluorescence was observed under the Nikon Eclipse TE200 Inverted microscope (Nikon Instruments Inc., Melville, N.Y., USA). […] Rpb1 levels were measured using the MEASURE feature of ImageJ where all the background signals were subtracted from the intergrated density of nuclear Rpb1.

[3] = tested on: RPB1 (RNAPII) in PC3 cells; test: RPB1 degradation in PC3 cells under hypoxia, immunocytochemistry and western blot; assay type: cell-based, human; conditions: PC3, hypoxic (1% O2), 10 mM WZB117 plus 3 mM compound 1 (so in the source); μM)
Protocol: as §3, §4

PC3 cells = test: PC3 proliferation under hypoxia or normoxia ([3H]-thymidine incorporation); assay type: cell-based, human; conditions: hypoxia versus normoxia
Protocol: as §1

[4] = lethal case dosed with 18 mg/m2 F60008

With `CC(C)C12OC1C1OC13C1(C)CCC4=C(COC4=O)C1CC1OC13C2OC(=O)CCC(=O)O` (stereo not drawn) [Compound F60008, triptolide-succinate] as the compound, how does the lethality in patients ([1]; administered with <12 mg/m^2 F60008) read?
The lethality in patients was “no lethality was observed in 18 of the 20 patients”.

What about the “lethality in early human clinical study” value ([1]; highest dose of therapy) of the same compound?
The value was “lethal to two patients”.

What about the Maximum serum levels [1, 4] of the same compound?
Its Maximum serum levels is 1,361 ng/mL.

And the “Maximum serum levels (molar)” value [1, 4]?
Its value is about 2.96 mM.

With `CO[C@H]1OC(COC(=O)CCC(=O)O[C@@H]2[C@@]3(C(C)C)O[C@H]3[C@@H]3O[C@]34[C@]23O[C@H]3C[C@H]2C3=C(CC[C@@]24C)C(=O)OC3)[C@@H](O)C(O)C1O` (stereo partly drawn) [Compound 9] as the compound, how does the IC50 (HEK 293T cells) read?
The IC50 was 395 ± 0.523 nM.

For `CC(C)[C@]12O[C@H]1[C@@H]1O[C@]13[C@]1(O[C@H]1C[C@H]1C4=C(CC[C@@]13C)C(=O)OC4)[C@@H]2OC(=O)c1ccccc1C(=O)O[C@H]1OC(CO)[C@@H](O)C(O)C1O` (stereo partly drawn) [Compound 5], which IC50 (HEK 293T cells) is on record?
Its IC50 is 6667 ± 2.03 nM.

With `CC(C)[C@]12O[C@H]1[C@@H]1O[C@]13[C@]1(O[C@H]1C[C@H]1C4=C(CC[C@@]13C)C(=O)OC4)[C@@H]2OC(=O)c1ccccc1C(=O)O[C@@H]1OC(CO)[C@@H](O)C(O)C1O` (stereo partly drawn) [Compound 4] as the compound, how does the IC50 (HEK 293T cells) read?
The IC50 was 5888 ± 1.19 nM.

With `CC(C)[C@]12O[C@H]1[C@@H]1O[C@]13[C@]1(O[C@H]1C[C@H]1C4=C(CC[C@@]13C)C(=O)OC4)[C@@H]2OC(=O)CCC(=O)OCC1OC(O)C(O)C(O)[C@@H]1O` (stereo partly drawn) [Compound 8] as the compound, how does the IC50 (HEK 293T cells) read?
Its IC50 is 244 ± 0.81 nM.

For `CC(C)[C@]12O[C@H]1[C@@H]1O[C@]13[C@]1(O[C@H]1C[C@H]1C4=C(CC[C@@]13C)C(=O)OC4)[C@@H]2OC(=O)CCCC(=O)O[C@H]1OC(CO)[C@@H](O)C(O)C1O` (stereo partly drawn) [Compound 7], which IC50 (HEK 293T cells) is on record?
The IC50 was 735 ± 1.11 nM.

For `CC(=O)S[C@@H]1CC2=CC(=O)CC[C@]2(C)[C@H]2CC[C@@]3(C)[C@@H](CC[C@@]34CCC(=O)O4)[C@H]12` [spironolactone], which “effect on compound 1-induced PARP1 cleavage” value (HeLa cells) is on record?
The value was “prevented PARP1 cleavage”.

And the “degradation of XPB” value (XPB)?
Its value is “caused degradation of the majority of XPB”.

What about the “endogenous RNAPII (RPB1) level” value ([2]; 10 mM spironolactone alone (so in the source); 10 μM)) of the same compound?
The value was “do not affect protein levels”.

And the “rescue of RNAPII from compound 1-induced degradation” value ([2]; pre-treatment with 10 mM spironolactone (so in the source), then 1 mM compound 1)?
The value was “rescues endogenous RNAPII”.

For `CC(C)[C@]12O[C@H]1[C@@H]1O[C@]13[C@]1(O[C@H]1C[C@H]1C4=C(CC[C@@]13C)C(=O)OC4)[C@@H]2OC(=O)CCCC(=O)O[C@@H]1OC(CO)[C@@H](O)C(O)C1O` (stereo partly drawn) [Compound 6], which IC50 (HEK 293T cells) is on record?
The IC50 was 1134 ± 1.15 nM.

With `CC(C)[C@]12O[C@H]1[C@@H]1O[C@]13[C@]1(O[C@H]1C[C@H]1C4=C(CC[C@@]13C)C(=O)OC4)[C@@H]2OC(=O)CC(C)(C)C(=O)O[C@@H]1OC(CO)[C@@H](O)C(O)C1O` (stereo partly drawn) [Compound 2] as the compound, how does the IC50 (HEK 293T cells) read?
Its IC50 is 3305 ± 0.98 nM.

Which “effect on compound 1-induced RNAPII degradation” value [3] does the source give for `O=C(Oc1cccc(F)c1OC(=O)c1cccc(O)c1)c1cccc(O)c1` [WZB117, reference compound] here?
Its value is “abolished the rapid degradation of endogenous RNAPII”.

For `COc1cccc2c1C(=O)c1c(O)c3c(c(O)c1C2=O)C[C@@](O)(C(=O)CO)C[C@@H]3O[C@H]1C[C@H](N)[C@H](O)[C@H](C)O1` [doxorubicin], which “change of potency under hypoxia” value (PC3 cells) is on record?
Its value is “decreased”.

Which IC50 (HEK 293T cells) does the source give for `CC(C)[C@]12O[C@H]1[C@@H]1O[C@]13[C@]1(O[C@H]1C[C@H]1C4=C(CC[C@@]13C)C(=O)OC4)[C@@H]2OC(=O)CC(C)(C)C(=O)O[C@H]1OC(CO)[C@@H](O)C(O)C1O` (stereo partly drawn) [Compound 3] here?
The IC50 was 999 ± 0.217 nM.

Reference: patent US20230134986A1, “GLUCOSE TRIPTOLIDE CONJUGATES AND USES THEREOF” (The Johns Hopkins University, priority 2020, published 2023)
